One compound from patent US6900198B2, “Synthetic catalytic free radical scavengers useful as antioxidants for prevention and therapy of disease” (Eukarion, Inc., priority 1995, dated 2005) can be followed below.

Series [1] in a line: Peroxidase activity, H2O2-dependent oxidation of ABTS. The note with it: C7 with 29 units/ml bovine liver catalase, 10 mM H2O2. The format is biochemical. On the procedure: Peroxidase activity was assayed by monitoring the hydrogen peroxide-dependent oxidation of 2,2′-azino-bis(3-ethylbenzthiazoline-6) sulfonic acid (ABTS) spectrophotometrically. Standard assay mixtures consisted of 50 mM sodium phosphate, pH 8.1, 0.9% sodium chloride, 0.5 mM ABTS, and H2O2 and salen manganese complex as indicated. Where indicated, 50 mM sodium phosphate buffers of pH 6.0 or pH 7.1 were substituted. Assays were conducted at 27±0.2° C. ABTS oxidation was monitored at 740 or 500 nm to eliminate interference by the salen manganese complexes, many of which absorb in the vicinity of the λmax of oxidized ABTS, and to avoid absorbance values that exceeded the linear range of the spectrophotometer. The amount of oxidized ABTS was estimated using an Δε740 of 20,300 M^−1cm^−1 or an Δε500 of 3400 M^−1cm^−1 calculated based upon the published molar extinction coefficient oat 405 nm (36,800).
Compounds were assayed for SOD as described under Experimental procedures, using cytochrome C as acceptor. The concentration of each compound showing half-maximal activity in this assay is presented. Catalase and peroxidase activities were conducted as described under Experimental Procedures, with 10 μM salen manganese complex. The H2O2 concentration was 10 mM and 0.2 mM in the catalase and peroxidase assays, respectively. Where denoted, “nd” means that the assay was not performed on this compound.
Catalase and peroxidase activities were assayed as described in Example 2. Catalase assays contained 10 μM salen-manganese complex and 10 mM hydrogen peroxide. Peroxidase assays contained 10 μM salen-manganese complex and 0.2 mM hydrogen peroxide. Glucose-glucose oxidase toxicity assays were performed using human dermal fibroblasts as described in Example 2.

Series [2] has as its system Isolated Iron-overloaded Rat Hearts. In words: Isolated iron-overloaded rat hearts submitted to ischemia and reperfusion. Here is the method:
Rats received an intramuscular injection of 0.25 ml of an iron-dextran solution (100 g iron hydroxide, 99 g dextran, water up to 11) every third day during a 5-week period to achieve a significant iron overload in cardiac tissue. At the end of this treatment, rats were anesthetized with sodium pentobarbital (40 mg/kg) and heparin (1,000 IU/kg) was administered via a femoral vein. Hearts were then removed and rapidly perfused through the aorta according to the technique described by Langendorff [Langendorff, O., Pflügers Arch. 61: 291, 1895] at a constant flow rate of 11 ml/minute. […] At the end of this period, systolic and diastolic ventricular pressures and heart beat rate (HR) were recorded through a pressure transducer linked to the ventricular balloon. Left Ventricular Developed Pressure (LVDP) was calculated by the difference between systolic and diastolic pressure and the product HR×LVDP was taken as an index of oxygen consumption. […] During this 15 minute reperfusion, heart rate, and diastolic and systolic pressures were monitored. Early ventricular fibrillations were analyzed 1 min. after the start of the reperfusion. […]
Mitochondria were classified into Type A (normal), Type B (swollen, unbroken), and Type C (ruptured membranes). […] The results are expressed as percentages.

The subject of series [3] is neurons. In words: Amyloid peptide toxicity in neurons in vitro. It counts as cell-based.
Series [4] relates to Human dermal fibroblasts (HF cells). The experiment in a line: Protection against t-butyl hydroperoxide toxicity in human fibroblasts (XTT). The format is cell-based. The note with it: 80 μM with 0.5 mM t-BHP. Here is the method:
Human dermal fibroblasts (HF cells) were obtained from the American type tissue Culture Collection at passage 1 and cultured and propagated in a medium (HF medium) consisting of Dulbecco's Modified Eagle's Medium with 4.5 g/l D-glucose, 10% calf serum 4 mM glutamine, 50 units/ml penicillin, and 50 μg/ml streptomycin in a 37° C. humidified incubator equilibrated with 5% CO2. Cells were used at passages 5 or 6 for experiments. For cell protection assays, HF cells were seeded at a density of about 15,000 cells per cm2 onto 96-well culture plates and allowed to grow to confluence. […] After 2 hr., the absorbance at 490 nm was measured in a BioRad (Richmond, Calif.) Model 3550 plate-reader, using a reference wavelength of 655 nm. […] Absorbance measurements for blank wells, containing HF medium and XTT reagent but no cells, were also determined. […] Fresh HF medium was then added and cell viability assessed using the XTT reagent as described above. […]
Cell protection assays were performed as described under Experimental Procedures with salen-manganese complexes administered at the indicated concentrations and t-BHP at 0.5 mM. Cell viability was assessed using the XTT reagent as described and is expressed as the absorbance at 490 nm uncorrected for blank. […]

Consider `[Cl][Mn]1[O]c2ccccc2C=NCCN=Cc2ccccc2[O]1` [Compound C7], for which the “total ABTS oxidized in the presence of added catalase” value in series [1] is 18 µM. The “protection of hearts from ischemia/reoxygenation damage, functionally and structurally” value in series [2] (C7 50 μM) is on record as “effectively protected hearts”. In series [2] (electron microscopy after 15 minute reperfusion), the “Mitochondria Type B (swollen, unbroken)” value is listed as 15.2#□ %. The “protection of neurons against amyloid peptide toxicity” value in series [3] is “protect neurons against amyloid peptide toxicity”. For the same compound, the “reduced viability at 80 μM relative to 40 μM together with t-BHP” value in series [4] is “possible synergistic toxicity with t-BHP”.
